{"source": "paper PMC8584173", "about": "“The Cytotoxic Effect of Copper (II) Complexes with Halogenated 1,3-Disubstituted Arylthioureas on Cancer and Bacterial Cells” (International Journal of Molecular Sciences, 2021)", "key": {"SW620 cells": {"test_system": "SW620 cells", "experiment": "Annexin V-FITC/PI flow cytometry, SW620", "assay_type": "cell-based, human", "conditions": "SW620, IC50 dose, 72 h", "protocol": "(§1) The cells were cultured and harvested under the conditions described in the cell culture section. […] The effect of these compounds on the process of early and late apoptosis and necrosis was determined, as described previously, by dual staining with annexin V-FITC and propidium iodide according to manufacturer’s protocol (Becton Dickinson). The cells that were annexin V-FITC positive and PI-negative were identified as early apoptotic and annexin V-FITC and PI-positive as late apoptotic or necrotic."}, "PC3 cells": {"test_system": "PC3 cells", "experiment": "Annexin V-FITC/PI flow cytometry, PC3", "assay_type": "cell-based, human", "conditions": "PC3, IC50 dose, 72 h", "protocol": "as §1"}, "[1]": {"test_system": "Glutathione S-transferase P (GSTP1_HUMAN)", "experiment": "LC–MS proteome analysis, GSTP1", "assay_type": "cell-based, Homo sapiens", "conditions": "IC50 concentration, % of control", "protocol": "(§2) Enzymes involved in oxidoreductive potential were analyzed in the cell lysates obtained after treatment cells with selected conjugates for 24 h. Cells were washed with phosphate-buffered saline (PBS) and harvested, then centrifuged at 1000× g for 10 min. Then, lysis buffer (containing protease inhibitor, 1% RIPA Lysis and Extraction Buffer (ThermoFisher)) and cold PBS were added, and samples were sonicated three times in ice bath. Next, the cell lysates were centrifuged at 14,000× g at 4 °C for 15 min, and then supernatants were stored at […] before use. Protein concentration was measured by the Bradford method.\n(§3) Normalized protein concentrations (5 µg) from cell lysate were precipitated by ice cold (–20 °C) acetonitrile (ACN, Merck, in ratio 1:4). Then, samples were centrifuged (–9 °C, 30 min., 18,000× g), the supernatant was discarded and ACN excess was evaporated using a vacuum centrifuge (5 min., room temp.). Protein pellet was dissolved in 40 mM ammonium bicarbonate. An amount of 500 mM dithiothreitol (DTT, with final concentration 20 mM) and 1 M iodoacetamide (IAA, with final concentration 40 mM) were used for reduction and alkylation processes. After 16 h of incubation in 37 °C with Trypsin Gold (Promega), digested protein samples were diluted with 0.1% formic acid (ThermoFisher) and centrifuged (+2 °C, 30 min, 18,000× g).\n(§4) LC–MS analysis was carried out with the use of nanoUHPLC (nanoElute, Bruker) coupled by CaptiveSpray (Bruker) to ESI-Q-TOF mass spectrometer (Compact, Bruker). Two-column separation method was used, i.e., pre-column (300 µm × 5 mm, C18 PepMap 100, 5 µm, 100Å, Thermo Scientific) and Aurora separation column with CSI fitting (75 µm × 250 mm, C18 1.6 µm) in gradient 2% B to 35% B in 90 min with the 300 nL/min flow rate. Mobile phases (A) 0.1% formic acid in water and (B) 0.1% formic acid in ACN were used.\n(§5) Sample ionizations were performed at a gas flow of 3.0 L/min, temperature of 150 °C and voltage of the capillary at 1600 V. The quadrupole energy was fixed to 5.0 eV and collision chamber energy 7.0 eV, with an ion transfer time of 90 µs. The ions were analyzed in the positive polarity mode in the range 150–2200 m/z, with the acquisition frequency of the 1 Hz spectrum, as well as with the autoMS/MS system.\n(§6) The collected spectra were analyzed and calibrated using DataAnalysis software (Bruker) and then identified in ProteinScape (Bruker) by the MASCOT server. Protein identification was conducted using the online SwissProt and NCBIprot databases, and their references and biological significance were identified using Reactome.org, String.org and KEGG."}, "[2]": {"test_system": "Glutathione reductase, mitochondrial (GSHR_HUMAN)", "experiment": "LC–MS proteome analysis, GSHR", "assay_type": "cell-based, Homo sapiens", "conditions": "IC50 concentration, % of control", "protocol": "as §2, §3, §4, §5, §6"}, "[3]": {"test_system": "Superoxide dismutase [Cu-Zn] (SODC_HUMAN)", "experiment": "LC–MS proteome analysis, SODC", "assay_type": "cell-based, Homo sapiens", "conditions": "IC50 concentration, % of control", "protocol": "as §2, §3, §4, §5, §6"}, "[4]": {"test_system": "Peroxiredoxin-1 (PRDX1_HUMAN)", "experiment": "LC–MS proteome analysis, PRDX1", "assay_type": "cell-based, Homo sapiens", "conditions": "IC50 concentration, % of control", "protocol": "as §2, §3, §4, §5, §6"}, "[5]": {"test_system": "Peroxiredoxin-2 (PRDX2_HUMAN)", "experiment": "LC–MS proteome analysis, PRDX2", "assay_type": "cell-based, Homo sapiens", "conditions": "IC50 concentration, % of control", "protocol": "as §2, §3, §4, §5, §6"}, "[6]": {"test_system": "Peroxiredoxin-6 (PRDX6_HUMAN)", "experiment": "LC–MS proteome analysis, PRDX6", "assay_type": "cell-based, Homo sapiens", "conditions": "IC50 concentration, % of control", "protocol": "as §2, §3, §4, §5, §6"}, "[7]": {"test_system": "Thioredoxin-dependent peroxide reductase, mitochondrial (PRDX3_HUMAN)", "experiment": "LC–MS proteome analysis, PRDX3", "assay_type": "cell-based, Homo sapiens", "conditions": "IC50 concentration, % of control", "protocol": "as §2, §3, §4, §5, §6"}, "Candida species": {"test_system": "Candida species", "experiment": "MIC, Candida species", "assay_type": "cell-based", "conditions": "studied Candida species", "protocol": "The antimicrobial activity of the compounds was tested on Gram-positive bacteria (Staphylococcus aureus NCTC 4163, Staphylococcus aureus ATCC 25923, Staphylococcus aureus ATCC 6538, Staphylococcus aureus ATCC 29213, Staphylococcus epidermidis ATCC 12228, Staphylococcus epidermidis ATCC 35984), Gram-negative rods (Escherichia coli ATCC 10538, Escherichia coli ATCC 25922, Pseudomonas aeruginosa ATCC 15442, Pseudomonas aeruginosa ATCC 27863) and yeasts (Candida albicans ATCC 10231, Candida albicans ATCC 90028, Candida parapsilosis ATCC 22019). Hospital methicillin-resistant strains of Staphylococcus aureus and Staphylococcus epidermidis were obtained from the collection of the Department of Pharmaceutical Microbiology, Medical University of Warsaw, Poland.\nAntifungal activities were assessed using Mueller–Hinton agar + 2% glucose and 0.5 µg/mL methylene blue dye medium. Sterile filter paper discs (9 mm diameter, Whatman Number 3 chromatography paper) were dripped with tested compound solutions (in dimethylsulfoxide, DMSO) to load 400 μg of a given compound per disc. Dry discs were placed on the surface of appropriate agar medium. The results (diameter of the growth inhibition zone) were read after 18 h of incubation at 35 °C. Minimal inhibitory concentration (MIC) was tested by the twofold serial microdilution method (in 96-well microtiter plates) using Mueller–Hinton broth medium (Beckton Dickinson) for bacteria or RPMI-1640 medium for Candida species, according to CLSI guidelines. The stock solution of tested agent was prepared in DMSO and diluted in sterile water. […] The final inoculum of all studied microorganisms was 10^5 CFU/ mL^−1 (colony forming units per ml). Minimal inhibitory concentrations (the lowest concentration of a tested agent that prevents visible growth of a microorganism) were read after 18 h (bacteria) or 24 h (yeasts) of incubation at 35 °C."}}}
{"smiles": "O=[N+]([O-])c1cc([N+]2=C(Nc3ccc(I)cc3)[S][Cu-2]23[S]C(Nc2ccc(I)cc2)=[N+]3c2ccc(Cl)c([N+](=O)[O-])c2)ccc1Cl", "note": "[Compound 8, Copper (II) complex with 1-(4-iodophenyl)-3-(4-chloro-3-nitrophenyl)thiourea]", "values": [{"measurement": "early apoptosis, % of cells", "setting": "SW620 cells", "value": "approximately 20%"}, {"measurement": "early apoptosis, % of cells", "setting": "PC3 cells", "value": "45.7% ± 3.3%"}, {"measurement": "Protein Intensity, % (GSTP1)", "setting": "[1]; PC3, 24 h", "value": 64.1, "unit": "%"}, {"measurement": "Protein Intensity, % (GSTP1)", "setting": "[1]; SW480, 24 h", "value": 83.0, "unit": "%"}, {"measurement": "Protein Intensity, % (GSTP1)", "setting": "[1]; SW620, 24 h", "value": 57.5, "unit": "%"}, {"measurement": "Protein Intensity, % (GSHR)", "setting": "[2]; PC3, 24 h", "value": 68.5, "unit": "%"}, {"measurement": "Protein Intensity, % (GSHR)", "setting": "[2]; SW480, 24 h", "value": 74.3, "unit": "%"}, {"measurement": "Protein Intensity, % (GSHR)", "setting": "[2]; SW620, 24 h", "value": 79.3, "unit": "%"}, {"measurement": "Protein Intensity, % (SODC)", "setting": "[3]; PC3, 24 h", "value": 33.0, "unit": "%"}, {"measurement": "Protein Intensity, % (SODC)", "setting": "[3]; SW480, 24 h", "value": 88.2, "unit": "%"}, {"measurement": "Protein Intensity, % (SODC)", "setting": "[3]; SW620, 24 h", "value": 64.5, "unit": "%"}, {"measurement": "Protein Intensity, % (PRDX1)", "setting": "[4]; PC3, 24 h", "value": 52.3, "unit": "%"}, {"measurement": "Protein Intensity, % (PRDX1)", "setting": "[4]; SW480, 24 h", "value": 84.4, "unit": "%"}, {"measurement": "Protein Intensity, % (PRDX1)", "setting": "[4]; SW620, 24 h", "value": 93.5, "unit": "%"}, {"measurement": "Protein Intensity, % (PRDX2)", "setting": "[5]; PC3, 24 h", "value": 39.9, "unit": "%"}, {"measurement": "Protein Intensity, % (PRDX2)", "setting": "[5]; SW480, 24 h", "value": 78.3, "unit": "%"}, {"measurement": "Protein Intensity, % (PRDX2)", "setting": "[5]; SW620, 24 h", "value": 88.6, "unit": "%"}, {"measurement": "Protein Intensity, % (PRDX6)", "setting": "[6]; PC3, 24 h", "value": 53.7, "unit": "%"}, {"measurement": "Protein Intensity, % (PRDX6)", "setting": "[6]; SW480, 24 h", "value": 71.1, "unit": "%"}, {"measurement": "Protein Intensity, % (PRDX6)", "setting": "[6]; SW620, 24 h", "value": 77.6, "unit": "%"}, {"measurement": "Protein Intensity, % (PRDX3)", "setting": "[7]; PC3, 24 h", "value": 24.8, "unit": "%"}, {"measurement": "Protein Intensity, % (PRDX3)", "setting": "[7]; SW480, 24 h", "value": 96.3, "unit": "%"}, {"measurement": "Protein Intensity, % (PRDX3)", "setting": "[7]; SW620, 24 h", "value": 95.2, "unit": "%"}, {"measurement": "growth inhibitory dose", "setting": "Candida species", "value": 64, "unit": "µg/mL"}]}
